Measurements published in patent US20070111251A1, “Chemical address tags” (priority 2003, published 2007).

Key:
dsDNA = test: Fluorometric titration of styryl dyes with dsDNA in buffer solution; type: binding, Salmon; settings: for em^free / Øf^free: free dye; for fluorescence emission increase with DNA versus free compound: highest concentration of DNA tested, 50 μg mL^−1; for Øf^DNA: quantum yield with dsDNA; for Øf^free: quantum yield; for max: spectrophotometric properties of the styryl dyes; for em^DNA: with dsDNA
Method: In some embodiments, the synthesis of compounds B was achieved by refusing with the pyridine derivatives and iodomethane for 2 hours, and compound B crystallized out in ethyl acetate. The condensation with aldehydes (A) and compound B was performed by refusing with piperidine for 2 hours in EtOH. After cooling to room temperature, the crystallized compounds were filtered and washed with ethyl acetate. With these purified compounds, the fluorescence intensity change upon addition of DNA was tested.
With a series of concentrations of dsDNA (double stranded DNA) added to compound 1, a linear increase in the fluorescence intensities was observed. (FIG. 17). […] At the highest concentration of DNA tested (50 μg mL^−1), the fluorescence emission reached up to 13.3 times higher than that of the free compound. Briefly, FIGS. 18A-18C show the absorption and fluorescence spectra of compounds 1, 2, and 3 (Dye 1, 2, 3 [50 μM], dsDNA [50 μg mL^−1]). A blue shift of 17 nm in the emission wavelength upon DNA addition was observed, without a significant excitation wavelength shift. The structure of compound 1 includes a 2,4,5-trimethoxy group from the benzaldehyde moiety and a unique adamantyl pyridinium functionality.
Unless otherwise noted, starting materials and solvents were purchased from commercial suppliers, and used without purification. Ethanol (EtOH) and ethyl acetate (EA) from Acros Organics (Fisher Scientific, UK) were used as the reaction solvents without any prior purification. Salmon testes solid dsDNA, and phosphate buffered saline (PBS) (NaCl 120 mM, KCl 2.7 mM, and phosphate buffer 10 mM, pH=7.4 at 24° C.) were purchased from Sigma-Aldrich and needed no further purification. Fluorescence intensities were measured by a Jobin Yvon Horiba FluoroMAX-3 fluorimeter (Horiba Group, Kyoto, Japan) with a quartz cuvette cell (10 mm×10 mm×4.5 cm; Starna (Atascadero, Calif.). ^1H-NMR (200 MHz) spectra were determined on Gemini 200 spectrometer (Varian, Inc., Palo Alto, Calif.). Chemical shifts were reported in parts per million (ppm) relative to the line of a singlet at 2.50 ppm for DMSO-d6 and coupling constants (j) are in Hertz (Hz). The following abbreviations are used for spin multiplicity: s=singlet, d=doublet, t=triplet, m=multiplet, and b=broad. All dye products were identified by LC-MS from Agilent Technology (Palo Alto, Calif.), using a C18 column (20×4.0 mm), with 4 minutes elution using a gradient of 5-95% CH3CN (containing 1% acetic acid)-H2O (containing 1% acetic acid), with UV detector at %=400 nm and an electrospray ionization source.

[1] = tested on: live UACC-62 human melanoma cells; test: Cell-based screening of extended styryl library: nuclear staining of live cells; settings: live UACC-62 cells; compounds 1-3 at 500 μM
Source text: In one preferred embodiment, an extended styryl dye library, composed of 855 compounds, was synthesized (See, Example 7) and screened for the subcellular localization in live […] human melanoma cells on glass bottom 96-well plates by the combinatorial library synthesis methods disclosed herein. […] The compounds were resynthesized on large scale for further study. (FIG. 16).
Therefore, both 2,4,5-trunethoxy groups and the adamantyl group are important in the specific interaction of compound 1 and DNA. The three related compounds 1, 2, and 3 were incubated in live UACC-62 human melanoma cells to compare their nuclear localization properties. (FIG. 19).

HeLa cells = test: Kinetic imaging of NBD-triazine probe uptake and sequestration, fitted to nested two-compartment transport model; type: cell-based; settings: median over optimal solutions within 5% of the best fit
Procedure, shortened: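 HeLa cells (3000/well, plated 24 h earlier) imaged live with 10 μM NBD probe in RPMI containing 1.0 mM bromophenol blue, about 2 h for influx, then washed and imaged 6 h for efflux, every ~7 min. Perinuclear pixel-intensity CV fitted to a nested two-compartment transport model by simulated annealing.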

[2] = pyridine derivatives; cited from earlier work

| SMILES | em^free (dsDNA) [nm] | Øf^DNA (dsDNA) | Øf^free (dsDNA) | max (dsDNA) [nm] | em^DNA (dsDNA) [nm] | median Pap(cyto) (apparent partition coefficient between extracellular medium and cytosol) (HeLa cells) | median Pap(ves) (apparent partition coefficient between cytosol and intracellular vesicles, k(ves)in/k(ves)out) (HeLa cells) | Øf^DNA/Øf^free (dsDNA) | fluorescence emission increase with DNA versus free compound (dsDNA) [fold] | nuclear staining / nuclear localization in live cells [1] | pKa [2] | further results |
| --- | --- | --- | --- | --- | --- | --- | --- | --- | --- | --- | --- | --- |
| COc1cc(OC)c(OC)cc1C=Cc1cc[n+](C23CC4CC(CC(C4)C2)C3)cc1.[Br-] [Compound 1, 2-[4-[5-(trimethyoxy)phenyl]-ethenyl-1-adamantyl]-4-methylpyridinium bromide] | 583 | 0.0032 | 0.00024 | 413 | 566 | – | – | 13.3 | 13.3 | clearly stains the nucleus of live cells more selectively | – | blue shift in the emission wavelength upon DNA addition (dsDNA): 17 nm; emission wavelength (dsDNA): 583 nm; excitation wavelength (dsDNA): 413 nm; fluorescence intensity change upon addition of DNA (dsDNA): strong fluorescence increase; linear fluorescence response range (dsDNA; in PBS, without self-quenching or wavelength shifts): 0.05 to 100 µM |
| COc1cc(C=Cc2cc[n+](C34CC5CC(CC(C5)C3)C4)cc2)cc(OC)c1OC.[Br-] [Compound 2] | 553 | 0.022 | 0.0051 | 366 | 520 | – | – | 4.3 | 4.3 | stronger fluorescence backgrounds and spread throughout the cytoplasm | – | – |
| COc1ccc(C=Cc2cc[n+](C34CC5CC(CC(C5)C3)C4)cc2)c(OC)c1OC.[Br-] [Compound 3] | 491 | 0.0037 | 0.0024 | 370 | 592 | – | – | 1.5 | 1.5 | stronger fluorescence backgrounds and spread throughout the cytoplasm | – | – |
| COc1cc(OC)c(OC)cc1C=Cc1cc[n+](C)cc1.[I-] [Compound 4, 1-Methyl-4[2-(2,4,5-trimethoxy-phenyl)-vinyl]pyridinium iodide] | – | – | – | – | – | – | – | – | – | – | – | fluorescence intensity change upon addition of DNA (dsDNA): significantly reduced the DNA response |

Further lines, with some results ahead:

| em^free (dsDNA) [nm] | Øf^DNA (dsDNA) | Øf^free (dsDNA) | max (dsDNA) [nm] | em^DNA (dsDNA) [nm] | median Pap(cyto) (apparent partition coefficient between extracellular medium and cytosol) (HeLa cells) | median Pap(ves) (apparent partition coefficient between cytosol and intracellular vesicles, k(ves)in/k(ves)out) (HeLa cells) | SMILES | Øf^DNA/Øf^free (dsDNA) | fluorescence emission increase with DNA versus free compound (dsDNA) [fold] | nuclear staining / nuclear localization in live cells [1] | pKa [2] | further results |
| --- | --- | --- | --- | --- | --- | --- | --- | --- | --- | --- | --- | --- |
| – | – | – | – | – | 15351.10 | 100.42 | COc1cccc(CNc2nc(NCCCCCCNc3ccc([N+](=O)[O-])c4nonc34)nc(NCCc3ccccn3)n2)c1 [Compound B9] | – | – | – | ~6.0 | – |
| – | – | – | – | – | 0.06 | 99497.01 | COc1ccc(CCNc2nc(NCCCCCCNc3ccc([N+](=O)[O-])c4nonc34)nc(NCCc3ccccn3)n2)cc1 [Compound D9] | – | – | – | ~6.0 | – |
| – | – | – | – | – | 2989.27 | 2940.20 | O=[N+]([O-])c1ccc(NCCCCCCNc2nc(NCCc3ccccn3)nc(NCCC(c3ccccc3)c3ccccc3)n2)c2nonc12 [Compound F9] | – | – | – | ~6.0 | – |
